Results taken from ChEMBL document CHEMBL1126490, “An unusual oxetane nucleoside as a potent antiviral agent” (1993).
Values joined by “and” are separate entries in the source; they are usually repeats but may differ in a detail not shown here. Equal entries are not always repeated.

Experiments:
Assay type in all cases: functional
[1] = species: Mus musculus; experiment: Mean survival time of mice against Japanese encephalitis virus was determined
[2] = system: Mus musculus; experiment: Percent survival of mice against Japanese encephalitis virus after 5 mg/Kg peroral administration of the compound.; conditions: po
[3] = system: Mus musculus; experiment: Percent survival of mice against forest virus after 10 mg/Kg peroral administration of compound; conditions: po
[4] = system: Mus musculus; experiment: Percent survival of mice against Japanese encephalitis virus after 10 mg/Kg peroral administration of compound; conditions: po
[5] = species: Mus musculus; experiment: Mean survival time of mice against forest virus was determined
[6] = system: Mus musculus; experiment: Percent survival of mice against forest virus after 5 mg/Kg peroral administration of compound; conditions: po

Question: With `Nc1ncnc2c1ncn2C1OC2COC2C1O` (stereo unspecified) as the compound, how does the MST [1] read?
Answer: 10.7 days and 15.5 days

Question: And the survival at 5 mg/kg [2]?
Answer: 37%

Question: What about the survival at 10 mg/kg [3] of the same compound?
Answer: 50%

Question: What about the survival at 10 mg/kg [4] of the same compound?
Answer: 67%

Question: What about the MST [5] of the same compound?
Answer: 11.6 days and 11.8 days

Question: And the survival at 5 mg/kg [6]?
Answer: 37%
